Experimental data published in patent publication US20060100284A1, “Growth promotor” (priority 2002, published 2006).

Assays:
[1] = test system: weaned pigs and growing swine; assay: Swine feeding test with feed additives; format: in vivo
Method: The composition of the invention was tested using weaned pigs and growing swine. The test comprised a total of 240 swine from 30 different litters. […] The composition of the invention was compared to a control without additives and to an antibiotic feed additive (Avilamycin) at the weaning and growth stage.

[2] = test system: weaned pigs and swine grown for pork meat; conditions: Partanen et al. 2002; cited from earlier work
[3] = test system: slaughter animals; conditions: Kirchgessner et al. 1995; cited from earlier work
[4] = Growth and final growth stage, additive in feed (6 g/kg for acids)
[5] = Weaning stage, additive in feed (8 g/kg for acids)

Compound	Daily growth [1, 4]	Final weight [1, 4]	Daily growth [1, 5]	Final weight [1, 5]	growth promoter effect in feed [2]	increase in weight of slaughter animals [3]
avilamycin	845 g/day	107.1 kg	335 g/day	19.3 kg		
O=CO [F, formic acid]	869 g/day	106.0 kg	308 g/day	18.5 kg	acts as a growth promoter	
C/C=C/C=C/C(=O)O [sorbic acid]						enhanced
